Entries after “also recorded” stand apart in the source; their conditions may differ.
Experiments:
[1] = test system: Col8a2^L450W mice; conditions: 7 mg/ml in water vs water alone; cited from earlier work
[2] = test system: cultured FECD CECs; test: RSL3/erastin-induced ferroptosis assay, cell viability by MTS, cultured FECD CECs; type: cell-based, human
Procedure: (§1) FIGS. 4A-4C. FECD CECs are more susceptible to ferroptosis than B4G12 control CECs. (A) Basal lipid peroxidation, as measured by C11 BODIPY, is 57% higher in cultured FECD CECs (N=3) than B4G12 cells (N=3). […] Cultured FECD CECs (N=6) also have 4.7-fold more TFR1 mRNA than B4G12 CECs (N=9), normalized to 18S. (C) Cultured FECD CECs (N=3) and B4G12 cells (N=3) were treated with 1 μM RSL3 to induce cell death via Fe-dependent ferroptosis. The cells were also treated with 100 μM of a Fe chelator, deferoxamine (DFO). Cell viability was measured using MTS assays over 8 hours.
FIGS. 5A-5B. FECD-associated ferroptosis is prevented by ubiquinol nanoparticles (NPs) and SOD2 supplementation. […] After incubating another 24 hours (68 hours total), cell viability in each culture was quantified using MTS assays.
(§2) Basal levels of lipid peroxidation and cytosolic Fe are higher in human FECD CECs than control CECs. […] One experiment assessed lipid peroxidation directly. Cultured FECD CECs and control CECs (B4G12 cells) were labeled with BODIPY and intensity was measured using flow cytometry. […] To determine whether Fe trafficking is affected in the context of FECD, TFR1 was quantified, which has been identified as an indicator of ferroptosis (Stockwell et al., 2017; Feng et al., 2020). […]

[3] = test system: B4G12 CECs; test: RSL3/erastin-induced ferroptosis / cell death assay, cell viability by MTS, B4G12 CECs; type: cell-based, human
Procedure: as §1
FIGS. 8A-8B. Nanoparticle targeting and efficacy. […] FITC-anti-αvβ3 labeled cells were detected and counted by flow cytometry and compared to a FITC-IgG control as well as unlabeled cells. […] After incubating another 24 hours (68 hours total), cell viability in each culture was quantified using MTS assays. […]
as §2

[4] = test system: ex vivo human donor CEC tissues; test: Mitochondrial respiration stress testing (extracellular flux analysis of O2 consumption, Seahorse) of donor CEC tissues stored in Optisol-GS; type: cell-based
Procedure: FIGS. 3A-3B. Ubiquinol increases mitochondrial function under oxidative stress. (A) Ex vivo human donor CECs stored in corneal storage media (Optisol-GS, Bausch+Lomb) are exposed to 3-fold greater O2 levels than in vivo CECs. Extracellular flux analysis of O2 consumption was performed in transplant-suitable ex vivo human donor CEC tissues stored for 12 days (average) in media supplemented with 10 μM free ubiquinol (dissolved in ethanol at 37° C.) for the last 5 days of storage (N=13) compared to same-donor controls (N=13). […] (B) The presence of αvβ3 on B4G12 CECs (N=3) was confirmed, indicating cRGD NPs will be a suitable delivery system for getting ubiquinol into CECs. FITC-anti-αvβ3 labeled cells were detected and counted by flow cytometry and compared to a FITC-IgG control as well as unlabeled cells. Dashed lines=injections of oligomycin (0), carbonyl cyanide-p-trifluoromethoxy-phenyl-hydrazone (F), antimycin A/rotenone (R/A). Error bars=SEM. ****P<0.0001. SRC, spare respiratory capacity.
Supplementing Optisol-GS with free ubiquinol increases mitochondrial function in donor CECs. Mitochondrial respiration stress testing (extracellular flux analysis of O2 consumption, Seahorse XFe24, Agilent) was performed in transplant-suitable ex vivo human donor CEC tissues stored for 12 days (average) in media supplemented with 10 μm free ubiquinol (dissolved in ethanol at 37 °C) for the last 5 days of storage compared to same-donor ethanol-only controls (N=13 each) (Greiner et al., 2015). […] Although free ubiquinol improved CEC mitochondrial function, ethanol and heat were required to bring it into solution and it was impractical to handle in standard industry conditions. Therefore, ubiquinol can be used to rescue mitochondrial function from storage-related oxidative stress but needs increased delivery. Given the positive impact of ubiquinol treatment on CECs stored at the end of conventional storage (12-14 days), increasing ubiquinol delivery may permit testing for benefit at extended PT (21 days, a 50% increase in PT).

[5] = Optisol-GS at 4° C. over 4 days
Procedure: Samples of Optisol-GS are collected daily. Concentrations (μg drug/total protein) of ubiquinol and its oxidized form ubiquinone are measured using HPLC. Coenzyme Q9 (CoQ9) is the internal standard.

[6] = cited from earlier work
[7] = 10 μM free ubiquinol for last 5 days of 12 days (average) storage, vs same-donor controls, N=13

## CC(=O)N[C@@H](CS)C(=O)O [NAC, N-Acetyl-L-cysteine]
[1]
  CEC death associated with ER stress and oxidative stress: prevented CEC death
  clinical markers of CEC health: increase clinical markers of CEC health

## COC(=O)c1ccc([C@@H]2c3[nH]c4ccccc4c3C[C@@H](C(=O)OC)N2C(=O)CCl)cc1 [RSL3]
[2]; cultured FECD CECs
  sensitivity of cells to induced ferroptosis: sensitive
[3]
  sensitivity of cells to induced ferroptosis: sensitive

## COc1c(O)c(C)c(C/C=C(\C)CC/C=C(\C)CC/C=C(\C)CC/C=C(\C)CC/C=C(\C)CC/C=C(\C)CC/C=C(\C)CC/C=C(\C)CC/C=C(\C)CCC=C(C)C)c(O)c1OC [free ubiquinol, ubiquinol]
[4]; [7]
  increase in maximal respiration: 93%
  increase in spare respiratory capacity: 174%
[4]; free ubiquinol in corneal storage media vs controls
  mitochondrial respiration / mitochondrial function: enhance mitochondrial function; also recorded: increased mitochondrial respiration compared to controls; also recorded: significantly increased mitochondrial respiration and spare respiratory capacity versus controls
[2]; antioxidant at 20 h, 1 μM RSL3 after 24 h, read after another 24 h
  prevention of ferroptosis (cell viability, MTS): little efficacy
[5]
  ubiquinol remaining: 69.3%
[6]
  solubility in water / aqueous media: practically insoluble in water; also recorded: poorly soluble in aqueous media

From patent US20240238383A1, “ANTI-OXIDANT CONTAINING PARTICLES AND METHODS OF USE” (University of lowa Research Foundation, priority 2021, published 2024)
